Laboratory results reported in patent US11612606B2, “8-aminoisoquinoline compounds and uses thereof” (priority 2018, dated 2023).

Target: HPK full length, T165E S171E (Homo sapiens (Human), UniProt Q92918, S171E/T165E)
Assay: HPK1-FL HTRF enzymatic assay ("HTRF")
Format: biochemical
Details: ATP 1 mM, read-out: HPK1 Ki
Experimental: Assay Principle: HPK-FL enzyme phosphorylates Biotin-SLP-76 substrate in the presence of ATP at […] and varying concentrations of test compound. Product is detected by FRET using Eu-anti-pSLP76 Ab and SA-XL665. Also see www.cisbio.com/HTRF for additional HTRF technology information.
Instrumentation: Echo555 compound dispenser; Agilent Bravo; Perkin Elmer Envision.
To a 384 well Proxiplate with 80 nL compound or DMSO spotted on was added 4 μl/well kinase mix. The mixture was preincubated for 30 minutes and then 4 μl/well substrate mix was added. The solution was incubated for 60 min and then 4 μl/well detection mix was added. The solution was incubated for another 60 min.
Exemplary compounds were tested in the HTRF binding assays.

HPK full length, T165E S171E, sequence (Q92918 whole entry T165E/S171E, looked up): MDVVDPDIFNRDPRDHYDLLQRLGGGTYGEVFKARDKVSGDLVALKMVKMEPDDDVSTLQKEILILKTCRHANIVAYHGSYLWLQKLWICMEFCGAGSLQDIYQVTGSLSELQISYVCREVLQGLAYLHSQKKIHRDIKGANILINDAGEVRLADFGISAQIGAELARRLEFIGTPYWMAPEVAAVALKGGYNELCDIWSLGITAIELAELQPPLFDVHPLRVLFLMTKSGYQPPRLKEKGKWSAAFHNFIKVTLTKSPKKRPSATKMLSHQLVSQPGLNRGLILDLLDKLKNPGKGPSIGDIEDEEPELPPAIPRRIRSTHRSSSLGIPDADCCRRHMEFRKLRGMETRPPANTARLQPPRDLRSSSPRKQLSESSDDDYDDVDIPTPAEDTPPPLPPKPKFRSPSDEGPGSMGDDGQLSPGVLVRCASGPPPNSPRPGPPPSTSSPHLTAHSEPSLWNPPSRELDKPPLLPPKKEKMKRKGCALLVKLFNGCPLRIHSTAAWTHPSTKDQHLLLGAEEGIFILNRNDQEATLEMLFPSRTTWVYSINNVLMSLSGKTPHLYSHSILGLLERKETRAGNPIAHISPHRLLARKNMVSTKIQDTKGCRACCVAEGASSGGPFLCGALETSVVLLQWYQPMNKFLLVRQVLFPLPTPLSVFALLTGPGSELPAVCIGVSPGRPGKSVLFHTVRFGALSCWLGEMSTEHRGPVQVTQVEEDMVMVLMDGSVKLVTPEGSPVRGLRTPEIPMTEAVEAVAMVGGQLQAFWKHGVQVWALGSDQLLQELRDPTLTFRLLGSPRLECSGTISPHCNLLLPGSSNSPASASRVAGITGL

| SMILES | Ki [nM] |
| --- | --- |
| Cc1c(-c2cc3cc(NC(=O)OC4CCOC4)ncc3c(N)c2F)cnc2c1NCCO2 (racemic) [Compound 403, (±)-Tetrahydrofuran-3-yl (8-amino-7-fluoro-6-(8-methyl-2,3-dihydro-1H-pyrido[2,3-b][1,4]oxazin-7-yl)isoquinolin-3-yl)carbamate] | 0.023 |
| Cc1c(-c2cc3cc(NC(=O)O[C@@H]4COC[C@H]4C)ncc3c(N)c2F)cnc2c1NCCO2 (racemic) [Compound 441ab, (±)-trans-4-Methyltetrahydrofuran-3-yl (8-amino-7-fluoro-6-(8-methyl-2,3-dihydro-1H-pyrido[2,3-b][1,4]oxazin-7-yl)isoquinolin-3-yl)carbamate] | 0.037 |
| Cc1c(-c2cc3cc(NC(=O)O[C@@H]4CCO[C@H]4C)ncc3c(N)c2F)cnc2c1NCCO2 (racemic) [Compound 510a, (2S,3R)-2-methyltetrahydrofuran-3-yl (8-amino-7-fluoro-6-(8-methyl-2,3-dihydro-1H-pyrido[2,3-b][1,4]oxazin-7-yl)isoquinolin-3-yl)carbamate] | 0.395 |
| Cc1c(-c2cc3cc(NC(=O)O[C@@H]4CCOC4)ncc3c(N)c2F)cnc2c1NCC(CO)C2 (mixture of isomers) [Compound 581a, (R)-Tetrahydrofuran-3-yl (8-amino-7-fluoro-6-(7-(hydroxymethyl)-4-methyl-5,6,7,8-tetrahydro-1,5-naphthyridin-3-yl)isoquinolin-3-yl)carbamate] | 0.43 |
| Cc1c(-c2cc3cc(NC(=O)O[C@@H]4CCN(C5COC5)C[C@H]4F)ncc3c(N)c2F)cnc2c1NCCO2 (relative stereo) [Compound 445ab, (+1-)-trans-3-Fluoro-1-(oxetan-3-yl)piperidin-4-yl (8-amino-7-fluoro-6-(8-methyl-2,3-dihydro-1H-pyrido[2,3-b][1,4]oxazin-7-yl)isoquinolin-3-yl)carbamate] | < 0.013 |
| Cc1c(-c2cc3cc(NC(=O)O[C@H]4CO[C@]5(CCN(C)C5)C4)ncc3c(N)c2F)cnc2c1NCCO2 (relative stereo) [Compound 467b, (3R,5R)-7-Methyl-1-oxa-7-azaspiro[4.4]nonan-3-yl(8-amino-7-fluoro-6-(8-methyl-2,3-dihydro-1H-pyrido[2,3-b][1,4]oxazin-7-yl)isoquinolin-3-yl)carbamate] | 0.064 |
| Cc1c(-c2cc3cc(NC(=O)N[C@@H]4CC[C@H]4C#N)ncc3c(N)c2F)cnc2c1NCCO2 (relative stereo) [Compound 712ab, 1-(8-Amino-7-fluoro-6-(8-methyl-2,3-dihydro-1H-pyrido[2,3-b][1,4]oxazin-7-yl)isoquinolin-3-yl)-3-(trans-2-cyanocyclobutyl)urea] | < 0.013 |
| Cc1c(-c2cc3cc(NC(=O)N[C@H]4CCC[C@H]4O)ncc3c(N)c2F)cnc2c1NCCO2 (relative stereo) [Compound 728a, 1-[8-Amino-7-fluoro-6-(8-methyl-2,3-dihydro-1H-pyrido[2,3-b][1,4]oxazin-7-yl)-3-isoquinolyl]-3-[(1S,2R)-2-hydroxycyclopentyl]urea] | < 0.013 |
| Cc1c(-c2cc3cc(NC(=O)O[C@@H]4CCNC4)ncc3c(N)c2F)cnc2c1NCCO2 (single isomer, unassigned) [Compound 405a] | 0.138 |
| Cc1c(-c2cc3cc(NC(=O)O[C@H]4CCNC4)ncc3c(N)c2F)cnc2c1NCCO2 (single isomer, unassigned) [Compound 405b] | 0.158 |
| Cc1c(-c2cc3cc(NC(=O)O[C@H]4CCCNC4)ncc3c(N)c2F)cnc2c1NCCO2 (single isomer, unassigned) [Compound 408a] | 0.089 |
| Cc1c(-c2cc3cc(NC(=O)O[C@@H]4CCCNC4)ncc3c(N)c2F)cnc2c1NCCO2 (single isomer, unassigned) [Compound 408b] | 0.069 |
| Cc1c(-c2cc3cc(NC(=O)O[C@H]4CC(=O)N(C)C4)ncc3c(N)c2F)cnc2c1NCCO2 (single isomer, unassigned) [Compound 410a] | 0.167 |
| Cc1c(-c2cc3cc(NC(=O)O[C@@H]4CC(=O)N(C)C4)ncc3c(N)c2F)cnc2c1NCCO2 (single isomer, unassigned) [Compound 410b] | 0.029 |
| Cc1c(-c2cc3cc(NC(=O)OC4CCOCC4)ncc3c(N)c2F)cnc2c1[C@@H](O)CCO2 (single isomer, unassigned) [Compound 412a] | 41 |
| Cc1c(-c2cc3cc(NC(=O)OC4CCOCC4)ncc3c(N)c2F)cnc2c1[C@H](O)CCO2 (single isomer, unassigned) [Compound 412b] | 0.29 |
| CC(=O)N[C@H]1CCCC[C@@H]1OC(=O)Nc1cc2cc(-c3cnc4c(c3C)NCCO4)c(F)c(N)c2cn1 (single isomer, unassigned) [Compound 414a] | 0.59 |
| CC(=O)N[C@@H]1CCCC[C@H]1OC(=O)Nc1cc2cc(-c3cnc4c(c3C)NCCO4)c(F)c(N)c2cn1 (single isomer, unassigned) [Compound 414b] | 21 |
| CN[C@H]1CCCC[C@@H]1OC(=O)Nc1cc2cc(-c3cnc4c(c3C)NCCO4)c(F)c(N)c2cn1 (single isomer, unassigned) [Compound 415a] | 3 |
| CN[C@@H]1CCCC[C@H]1OC(=O)Nc1cc2cc(-c3cnc4c(c3C)NCCO4)c(F)c(N)c2cn1 (single isomer, unassigned) [Compound 415b] | 16 |
| CC(=O)N1CC[C@@H](OC(=O)Nc2cc3cc(-c4cnc5c(c4C)NCCO5)c(F)c(N)c3cn2)C1 (single isomer, unassigned) [Compound 418a] | < 0.013 |
| Cc1c(-c2cc3cc(NC(=O)OC4CCN(C)CC4F)ncc3c(N)c2F)cnc2c1NCCO2 (single isomer, unassigned) [Compound 433] | < 0.013 |

| SMILES | Ki [nM] |
| --- | --- |
| CC(=O)N1CC[C@H](OC(=O)Nc2cc3cc(-c4cnc5c(c4C)NCCO5)c(F)c(N)c3cn2)[C@H](F)C1 (single isomer, unassigned) [Compound 437a] | < 0.013 |
| CC(=O)N1CC[C@@H](OC(=O)Nc2cc3cc(-c4cnc5c(c4C)NCCO5)c(F)c(N)c3cn2)[C@@H](F)C1 (single isomer, unassigned) [Compound 437b] | 0.054 |
| Cc1c(-c2cc3cc(NC(=O)OC4C5COCC4CN(C)C5)ncc3c(N)c2F)cnc2c1NCCO2 (single isomer, unassigned) [Compound 439a] | < 0.013 |
| Cc1c(-c2cc3cc(NC(=O)OC4C5COCC4CN(C)C5)ncc3c(N)c2F)cnc2c1NCCO2 (single isomer, unassigned) [Compound 439b] | 0.48 |
| Cc1c(-c2cc3cc(NC(=O)O[C@H]4COCCN(C)C4)ncc3c(N)c2F)cnc2c1NCCO2 (single isomer, unassigned) [Compound 440a] | 0.084 |
| Cc1c(-c2cc3cc(NC(=O)O[C@@H]4COCCN(C)C4)ncc3c(N)c2F)cnc2c1NCCO2 (single isomer, unassigned) [Compound 440b] | 0.277 |
| Cc1c(-c2cc3cc(NC(=O)O[C@@H]4COC[C@H]4C)ncc3c(N)c2F)cnc2c1NCCO2 (single isomer, unassigned) [Compound 441a] | < 0.013 |
| Cc1c(-c2cc3cc(NC(=O)O[C@H]4COC[C@H]4C)ncc3c(N)c2F)cnc2c1NCCO2 (single isomer, unassigned) [Compound 441c] | 0.16 |
| Cc1c(-c2cc3cc(NC(=O)O[C@@H]4COC[C@@H]4C)ncc3c(N)c2F)cnc2c1NCCO2 (single isomer, unassigned) [Compound 441d] | 0.32 |
| Cc1c(-c2cc3cc(NC(=O)O[C@H]4CN(C)C[C@H]4C)ncc3c(N)c2F)cnc2c1NCCO2 (single isomer, unassigned) [Compound 442b] | 0.201 |
| Cc1c(-c2cc3cc(NC(=O)O[C@@H]4CN(C)C[C@H]4C)ncc3c(N)c2F)cnc2c1NCCO2 (single isomer, unassigned) [Compound 442c] | 0.154 |
| Cc1c(-c2cc3cc(NC(=O)O[C@H]4CN(C)C[C@@H]4C)ncc3c(N)c2F)cnc2c1NCCO2 (single isomer, unassigned) [Compound 442d] | 0.046 |
| CCc1c(-c2cc3cc(NC(=O)O[C@@H]4CC(=O)N(C)C4)ncc3c(N)c2F)cnc2c1NCCO2 (single isomer, unassigned) [Compound 444a] | < 0.013 |
| CCc1c(-c2cc3cc(NC(=O)O[C@H]4CC(=O)N(C)C4)ncc3c(N)c2F)cnc2c1NCCO2 (single isomer, unassigned) [Compound 444b] | < 0.013 |
| Cc1c(-c2cc3cc(NC(=O)OC[C@@]4(F)CCN(C)C4)ncc3c(N)c2F)cnc2c1NCCO2 (single isomer, unassigned) [Compound 451a] | 0.14 |
| Cc1c(-c2cc3cc(NC(=O)OC[C@]4(F)CCN(C)C4)ncc3c(N)c2F)cnc2c1NCCO2 (single isomer, unassigned) [Compound 451b] | < 0.013 |
| Cc1c(-c2cc3cc(NC(=O)O[C@@H]4CN(C)C[C@@H]4F)ncc3c(N)c2F)cnc2c1NCCO2 (single isomer, unassigned) [Compound 452d] | < 0.013 |
| Cc1c(-c2cc3cc(NC(=O)OC4CCOCC4)ncc3c(N)c2F)cnc2c1NCC[C@H]2C (single isomer, unassigned) [Compound 461a] | 0.891 |
| Cc1c(-c2cc3cc(NC(=O)OC4CCOCC4)ncc3c(N)c2F)cnc2c1NCC[C@@H]2C (single isomer, unassigned) [Compound 461b] | 1.01 |
| Cc1c(-c2cc3cc(NC(=O)O[C@@H]4CO[C@@]5(CCN(C)C5)C4)ncc3c(N)c2F)cnc2c1NCCO2 (single isomer, unassigned) [Compound 467a] | 0.031 |
| Cc1c(-c2cc3cc(NC(=O)O[C@@H]4CO[C@]5(CCN(C)C5)C4)ncc3c(N)c2F)cnc2c1NCCO2 (single isomer, unassigned) [Compound 467c] | 0.027 |
| Cc1c(-c2cc3cc(NC(=O)O[C@H]4CO[C@@]5(CCN(C)C5)C4)ncc3c(N)c2F)cnc2c1NCCO2 (single isomer, unassigned) [Compound 467d] | < 0.013 |
